Assay results reported in US6228345A, “In vivo assay for intravasation” (Mount Sinai School of Medicine of New York University, priority 1999, dated 2001).

Columns and labels:
HEp3 cells = experiment: Intravasation assay: chick embryo CAM with Alu-PCR of lower CAM; format: in vivo, human
MMP-9 = experiment: Gelatin gel zymography of HEp3 conditioned medium, MMP-9; format: biochemical, human; conditions: 80 nM
Procedure: (§1) FIG. 10. […] Serum-free conditioned medium of HEp3 cells was collected and electrophoresed on PAGE by loading 10 μl into each of five wells. The gel was sliced to include one sample per slice and each slice was incubated with marimastat at the indicated concentrations (0-1.6 μM) and the gels were incubated only for 22 hr.
(§2) Ten μl aliquots of conditioned media were electrophoresed at 4° C. on 8% PAGE containing 0.1% gelatin, the gel washed in 2.5% Triton X-100 for 30 min, rinsed in water, and incubated for 40 hrs at 37° C. in buffer containing 50 mM Tris pH 7.7, 5 mM CaCl2, and 0.02% NaN3. To test for inhibition of MMPs by BB2516, HEp3 cell conditioned medium was electrophoresed in quadruplicate. The gel was cut into 4 fragments each containing one sample (lane) and incubated separately as above except that marimastat was added in increasing concentration to the incubation buffer. All gels were stained with Coomassie blue, de-stained and dried between dialysis sheets.

MMP-1 = experiment: Gelatin gel zymography of HEp3 conditioned medium, MMP-1; format: biochemical, human; conditions: 80 nM
Procedure: as §1, §2

MMP-2 = experiment: Gelatin gel zymography of HEp3 conditioned medium, MMP-2; format: biochemical, human; conditions: 1.6 μM, highest concentration tested
Procedure: as §1, §2

[1] = test system: MMP-1, MMP-2, MMP-3, MMP-7 and MMP-9; conditions: one range printed for MMP-1, MMP-2, MMP-3, MMP-7 and MMP-9 together; cited from earlier work

CNC(=O)[C@@H](NC(=O)[C@H](CC(C)C)[C@H](O)C(=O)NO)C(C)(C)C [marimastat]
inhibition of intravasation (HEp3 cells; 200 μM inhibitor, compared with 100 μM): less effective
inhibition of intravasation (HEp3 cells; final concentration of 50 nM, separate experiment): more than 60%
inhibition of MMP-9 activity (zymogram) (MMP-9): block most
inhibition of MMP-1 activity (zymogram) (MMP-1): all of the MMP-1 activity
inhibition of MMP-2 activity (zymogram) (MMP-2): residual lysis zone
inhibition of MMP-2 activity (zymogram) (MMP-2; listed as Marimastat): not completely inhibited
